According to US20180110784A1, “SYNTHETIC TLR4 AND TLR7 LIGANDS TO PREVENT, INHIBIT OR TREAT LIVER DISEASE” (The Regents of the University of California, priority 2015, published 2018):
Where two headings read alike, the source gives them in different places.

Legend:
Assay type in all cases: cell-based
IL-6 = IL-6 activity of TLR4 ligands, mouse; set-up: unit not given here
IP-10 = IP-10 activity of TLR4 ligands, mouse
TLR4 [1] = target: T1, TLR4 (Mus musculus, UniProt Q9JHF9+Q9QUK6); experiment: TLR4 activity, mouse
T1 sequence (Q9QUK6 26-835): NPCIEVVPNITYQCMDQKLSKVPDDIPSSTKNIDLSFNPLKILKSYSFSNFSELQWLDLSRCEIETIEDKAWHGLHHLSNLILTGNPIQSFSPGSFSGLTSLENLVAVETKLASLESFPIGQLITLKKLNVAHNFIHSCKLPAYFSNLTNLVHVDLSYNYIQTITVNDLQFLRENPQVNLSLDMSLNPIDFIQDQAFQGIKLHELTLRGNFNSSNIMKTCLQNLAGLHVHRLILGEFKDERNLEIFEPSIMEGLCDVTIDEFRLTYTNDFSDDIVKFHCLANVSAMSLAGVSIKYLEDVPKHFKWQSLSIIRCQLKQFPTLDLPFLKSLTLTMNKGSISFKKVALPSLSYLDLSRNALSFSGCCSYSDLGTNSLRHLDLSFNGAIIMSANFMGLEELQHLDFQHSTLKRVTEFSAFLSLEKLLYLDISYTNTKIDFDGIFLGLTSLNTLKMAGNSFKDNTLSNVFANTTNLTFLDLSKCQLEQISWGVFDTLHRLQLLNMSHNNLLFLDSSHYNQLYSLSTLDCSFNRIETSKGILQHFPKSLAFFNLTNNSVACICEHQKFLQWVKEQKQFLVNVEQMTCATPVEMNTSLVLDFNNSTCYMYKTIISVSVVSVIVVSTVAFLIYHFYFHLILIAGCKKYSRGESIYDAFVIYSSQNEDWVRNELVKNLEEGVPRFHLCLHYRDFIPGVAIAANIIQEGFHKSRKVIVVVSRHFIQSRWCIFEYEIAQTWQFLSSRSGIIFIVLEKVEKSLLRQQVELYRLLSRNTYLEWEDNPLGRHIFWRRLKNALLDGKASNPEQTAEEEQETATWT
T1 sequence (Q9JHF9 19-160): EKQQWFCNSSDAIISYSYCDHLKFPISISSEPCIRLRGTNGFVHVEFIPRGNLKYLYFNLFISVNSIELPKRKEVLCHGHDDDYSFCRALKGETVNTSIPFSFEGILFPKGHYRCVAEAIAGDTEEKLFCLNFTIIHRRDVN

IL-8 = IL-8 activity of TLR4 ligands, human; set-up: unit not given here
TLR4 [2] = target: TLR4 (Homo sapiens, UniProt O00206+Q9Y6Y9); experiment: TLR4 activity, human
Sequence of TLR4 (Homo sapiens, UniProt O00206+Q9Y6Y9) (O00206 24-839): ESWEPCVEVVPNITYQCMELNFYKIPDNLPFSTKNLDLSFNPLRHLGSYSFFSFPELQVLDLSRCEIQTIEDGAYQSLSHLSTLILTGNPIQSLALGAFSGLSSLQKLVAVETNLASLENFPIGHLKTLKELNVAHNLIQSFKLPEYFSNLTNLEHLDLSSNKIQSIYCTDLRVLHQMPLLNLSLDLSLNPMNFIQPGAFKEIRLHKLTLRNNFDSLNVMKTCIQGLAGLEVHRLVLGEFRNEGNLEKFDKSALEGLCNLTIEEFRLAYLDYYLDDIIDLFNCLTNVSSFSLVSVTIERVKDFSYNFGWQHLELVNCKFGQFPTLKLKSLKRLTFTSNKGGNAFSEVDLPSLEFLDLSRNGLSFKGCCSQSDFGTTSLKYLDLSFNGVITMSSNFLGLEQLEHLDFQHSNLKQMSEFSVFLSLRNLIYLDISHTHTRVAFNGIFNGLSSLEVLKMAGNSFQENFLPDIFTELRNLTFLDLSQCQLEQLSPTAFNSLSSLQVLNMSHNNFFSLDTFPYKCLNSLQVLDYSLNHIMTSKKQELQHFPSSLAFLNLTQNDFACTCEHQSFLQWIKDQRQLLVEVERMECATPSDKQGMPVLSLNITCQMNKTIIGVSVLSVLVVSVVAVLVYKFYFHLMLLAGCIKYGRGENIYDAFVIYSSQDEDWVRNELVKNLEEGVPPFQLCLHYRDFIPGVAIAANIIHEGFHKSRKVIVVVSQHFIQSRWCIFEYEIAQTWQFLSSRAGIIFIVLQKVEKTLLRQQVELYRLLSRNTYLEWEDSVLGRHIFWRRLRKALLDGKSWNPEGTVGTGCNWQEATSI
Sequence of TLR4 (Homo sapiens, UniProt O00206+Q9Y6Y9) (Q9Y6Y9 17-160 limits assumed): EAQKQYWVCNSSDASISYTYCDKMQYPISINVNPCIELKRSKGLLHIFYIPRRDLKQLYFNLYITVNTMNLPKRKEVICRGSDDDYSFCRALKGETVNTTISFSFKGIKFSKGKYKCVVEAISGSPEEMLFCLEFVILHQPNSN

TLR9 signaling = experiment: CpG-DNA-induced TLR9 signaling-mediated inflammatory response in isolated Kupffer cells; conditions: R848 0.5 μM for 16 hours, then CpG-DNA 5 μg/mL for 4 hours
Experimental: It was examined whether 1Z1 (FIG. 7) inhibits TLR9 signaling, which promotes liver diseases, including non-alcoholic steatohepatitis (NASH) and alcoholic liver disease (ALD). Isolated Kupffer cells were treated with 1Z1 (5 μM) or R848 (0.5 μM) for 16 hours followed by stimulation with CpG-DNA (TLR9 ligand; 5 μg/mL) for 4 hours and inflammatory cytokine expression was then measured. Pretreatment with […], 1Z1, and R848 inhibited production of IL-6, TNFα, IL-1β, CCL5, CXCL1, and CXCL2 in Kupffer cells following CpG-DNA treatment (FIG. 18).

mouse TLR4 (TLR4 [1]; mouse)	human TLR4 (TLR4 [2]; human)	SMILES	mouse IL-6 (IL-6)	mouse IP-10 (IP-10)	mouse TLR4 (TLR4 [1])	human IL-8 (IL-8)	human TLR4 (TLR4 [2])	production of IL-6, TNFα, IL-1β, CCL5, CXCL1, and CXCL2 following CpG-DNA treatment (TLR9 signaling)
–	–	CCCCNC(=O)CSc1nc2c([nH]c3ccccc32)c(=O)n1-c1ccccc1 [Compound 23]	49	61	31	29	32	–
1	<1	CN(C(=O)CSc1nc2c3ccccc3n(C)c2c(=O)n1-c1ccccc1)C1CCCCC1 [Compound 43]	<1	<1	–	5	–	–
9	19	COC(=O)CCCn1c2ccccc2c2nc(SCC(=O)NC3CCCCC3)n(-c3ccccc3)c(=O)c21 [Compound 44]	4	19	–	124	–	–
–	–	CCOCc1nc2c(N)nc3ccccc3c2n1CC(C)(C)O [Compound R848]	–	–	–	–	–	inhibited

SMILES	mouse TLR4 (TLR4 [1]; mouse)	human TLR4 (TLR4 [2]; human)	mouse IL-6 (IL-6)	mouse IP-10 (IP-10)	mouse TLR4 (TLR4 [1])	human IL-8 (IL-8)	human TLR4 (TLR4 [2])	production of IL-6, TNFα, IL-1β, CCL5, CXCL1, and CXCL2 following CpG-DNA treatment (TLR9 signaling)
O=C(CSc1nc2c([nH]c3ccccc32)c(=O)n1-c1ccccc1)NC1CCNCC1 [Compound 34]	<1	<1	<1	<1	–	17	–	–
